# In paper PMC12040169 (PLOS Biology, 2025):
# Test: in vitro
# Conditions: human, hela cells, % viability
row,SMILES,"viability at 28.5 h, 10 µM [%]"
1,O=S(=O)(c1ccc(I)cc1)n1ccc2c(N3CCNCC3)cncc21 [CBK081326C],84.9
2,CCn1c(=O)n(CC(=O)Nc2ccccc2F)c2cccnc21 [CBK283897],102
3,CC(C)c1nsc(NS(=O)(=O)c2cc(OCC(F)(F)F)ccc2OCC(F)(F)F)n1 [CBK051262],106
4,O=C(Cc1ccsc1)N1CCC(c2cc3cccnc3[nH]2)CC1 [CBK285000],85.6
5,CCc1nnc(SCc2ccc(CSc3nnc(CC)n3N)cc2)n1N [CBK265689],106
6,CN1CC(=O)N(c2ccc(Cl)cc2Cl)C1=O [CBK116319],93
7,O=C(Cc1n[nH]c(=O)[nH]c1=O)N/N=C/c1ccc(C(=O)O)cc1 [CBK263525],99.5
8,Cc1noc(C)c1S(=O)(=O)n1c(=O)n(Cc2ccc(S(C)(=O)=O)cc2)c2ccccc21 [CBK106536],93.4
9,CC(=O)OCc1nc2cc(F)c(F)cc2[nH]1 [CBK110117],92.9
10,O=C(CSc1nc(O)cc(=O)n1-c1ccccc1)c1ccccc1 [CBK261745],103
11,O=C(Cn1nnc2ccccc2c1=O)N1CCCC(C(F)(F)F)C1 (stereo not shown) [CBK305900],80.5
12,CCc1nc2ccc(C(=O)Nc3ccc(Cl)c(Cl)c3)cn2c1N(CC)CCOC [CBK146042],94
13,CC1(C)C[C@H](NC(=O)C2CC2)[C@@]2(CCC(=O)N3CCCC3)CC[C@](C)(O)C[C@@H]12 [CBK289044],88.1
14,Cc1cc(Cc2ccc(Cl)cc2)cc(C2CCN(C(=O)Cc3csc(C)n3)CC2)n1 [CBK286526],88.5
15,O=C(CC1CCN(C(=O)CC2CCCCC2)CC1)Nc1ccccc1CN1CCCC1 [CBK286046],100
16,CCn1cncc1CN1CCC(O)(c2ccccc2F)CC1 [CBK282817],112
17,CC(CC(=O)O)n1nnc2ccccc21 (stereo not shown) [CBK264139],113
18,COC(=O)c1cc(CN2CCCN(S(=O)(=O)c3ccc(C(F)(F)F)cc3Cl)CC2)cn1C [CBK063097],99.4
19,CC(C)n1cc(CN2CCNC(=O)C2c2ccccc2C(F)(F)F)nn1 (stereo not shown) [CBK304732],91.6
20,COc1ccccc1Cc1cccc(C2CCN(C(=O)Cc3c[nH]c4ccccc34)CC2)n1 [CBK286226],92.8
21,Cc1cccc(NC(=O)NC(=O)C2CCN(CCOc3ccccc3)CC2)c1 [CBK034868],89.9
22,Cc1sc(C(=O)Nc2ccc3ccccc3c2)cc1CC(=O)O [CBK267710],96.4
23,Cn1/c(=N\C(=O)c2cccs2)sc2cc(Br)ccc21 [CBK018873],102

row,SMILES,"viability at 28.5 h, 10 µM [%]"
1,O=C(CCN1C(=O)c2cccc([N+](=O)[O-])c2C1=O)Nc1ccccc1Cl [CBK263121],91.6
2,Nc1ncc(-c2ccccc2CO)nc1NC1CCOCC1 [CBK063799],98.7
3,COc1ccc(CN(C)CCN(C)C)c(O)c1 [CBK261915],114
4,COc1cc(Nc2cncc(-c3cccnc3)n2)cc(OC)c1OC [CBK065201],93.7
5,COc1ccc(C(=O)Nc2ccc(S(=O)(=O)N3CCN(C)CC3)cc2)cc1 [CBK267622],92.8
6,Cc1ccccc1OCC(=O)Nc1c(C)n[nH]c1C [CBK266046C],106
7,CN1C2CCC1CC(OC(=O)c1cccnc1)C2 (stereo not shown) [CBK026000],100
8,Oc1cccnc1N1CCN(Cc2ccccc2)CC1 [CBK045849],104
9,O=S(=O)(Nc1ccccn1)N1CCOCC1 [CBK269391],86.9
10,CCn1nc(C)c(-c2cncn2CC(C)N2CCCCC2)c1C (stereo not shown) [CBK281808],102
11,COc1ccc(C(C)C)cc1-c1cnc2nc(NS(C)(=O)=O)ccc2c1 [CBK085672],102
12,COc1cc(OC)cc(C(=O)N2CCC3(CC2)NC(=O)c2ccc(OC)cc2O3)c1 [CBK166328],106
13,COc1ccc(CCNC(=O)c2ccccc2N(C)S(C)(=O)=O)cc1 [CBK266833],104
14,Oc1ccc(CN2CCN(c3ccc(F)cc3)CC2)c2cccnc12 [CBK267985],117
15,CCOC(=O)N1CCN(C(C(=O)O)c2c[nH]c3ccc(C)cc23)CC1 (stereo not shown) [CBK286632],93.1
16,CCN1CC2(CCN(Cc3ncc[nH]3)CC2)c2ccccc21 [CBK131486],89.1
17,CN1CCN(c2ccc(-c3cncc(NCCc4ccccn4)n3)cn2)CC1 [CBK037135],87.2
18,CN1CCC(N(C)C(=O)NCCOc2ccccc2)C1 (stereo not shown) [CBK156018],107
19,c1ccc(COc2ccccc2-c2cc(NCCc3ccccn3)ncn2)cc1 [CBK037826],102
20,CCNC(=O)Nc1ccc2c(-c3ccccc3)ccnc2n1 [CBK070668],95.6
21,Cc1nc(C)c(CNC(=O)NC2CCCN(c3ccn(C)n3)C2=O)s1 (stereo not shown) [CBK305457],86
22,Cc1ccsc1CN(C)C(=O)NC1CCCc2c1cnn2CCO (stereo not shown) [CBK306349],83
23,O=C(Cc1ccc(F)cc1)N1CC[C@@H](c2ccccc2)[C@H](O)C1 [CBK283714],84.5

row,SMILES,"viability at 28.5 h, 10 µM [%]"
1,CCCCC12CN3CC(C)(CN(C1)C31C(=O)N(C)c3ccc(C)cc31)C2=O (stereo not shown) [CBK267286],96.1
2,CC(C)Nc1nccnc1Sc1ccccc1O [CBK089492],92.1
3,Cc1nc(-c2cccnc2)[nH]c(=O)c1CC(=O)N(C)CC1CCCCC1 [CBK305785],91.4
4,CC(=O)Nc1ccc2c(CSc3nnc(-c4ccco4)n3C)cc(=O)oc2c1 [CBK297534],91.7
5,CCc1cc(NC[C@@H](O)CO)nc(-c2cc(F)c(F)c(F)c2)n1 [CBK132879],94.2
6,O/N=C1/CCCCCC1NO (stereo not shown) [CBK264368A],107
7,O=C(Cc1cccs1)N1CCC(c2nnc3n2CCCCC3)CC1 [CBK284606],83.1
8,O=C1CC(c2ccccc2)CC(=O)N1c1ccc(N2CCOCC2)cc1 [CBK291191],108
9,CNC(=O)c1cccc(NC(=O)C(C)N(C)Cc2cnc(C)s2)c1 (stereo not shown) [CBK305735],81.5
10,O=C(CCn1c(C(F)F)cc2cccnc21)NCc1ccncc1 [CBK285027],103
11,CCN(Cc1ccncc1)C(=O)NCCN1CCOCC1 [CBK145055],92.1
12,COc1cncc(-c2cc(Nc3cccc(OC)c3OC)ncn2)c1 [CBK090728],97.8
13,CCOC(=O)c1c(C(C)(C)C)oc2ccc(OCC(=O)c3ccc(OC)cc3)cc12 [CBK264950],123
14,OCc1ccccc1-c1cn2ccnc2c(Nc2ccccc2)n1 [CBK037999],108
15,Cc1ncccc1OC1(C(=O)NCc2cn3c(n2)SCC3)CCNCC1 [CBK307649],103
16,CCOc1cc(/C=N/NC(=O)CSc2nc(C)cc(C)n2)ccc1O [CBK262405],96.1
17,Cc1n[nH]c(C)c1CCC(=O)N/N=C/c1ccncc1 [CBK262888],112
18,Fc1ccccc1Oc1nnnn1-c1ccccc1 [CBK002526],98.2
19,Oc1ccccc1CNC1(Cc2cc(-c3ccc(F)cc3)on2)COC1 [CBK289655],95.8
20,CCOC(=O)c1[nH]c(=O)[nH]c1CSc1nc(C)cc(C)n1 [CBK019514],109
21,NC(=O)Cn1cc(C(=O)c2ccncc2)c(=O)c2cc(Cl)ccc21 [CBK288584],86
22,COc1ccc(C(C)C)cc1-c1nccnc1NCc1ccc2c(c1)OCO2 [CBK036683],81
23,O=c1[nH]nc2c3ccc(Cl)cc3ncn12 [CBK283988],62.3

row,SMILES,"viability at 28.5 h, 10 µM [%]"
1,C[n+]1cn(/N=C/c2ccco2)cn1 [CBK028562I],104
2,O=C(O)CCC(=O)Nc1ccccc1NC(=O)c1ccc(C(F)(F)F)cc1 [CBK265770],102
3,Cc1ccc(CCC(=O)Nc2nc3c(cc2C#N)CCC3)o1 [CBK306366],67.1
4,CCCCOC(=O)c1c(N)n(CCOC)c2nc3ccccc3nc12 [CBK264961],96.9
5,COc1ccc(CCNC(=O)CN2CCCCC2C)cc1 (stereo not shown) [CBK304827],94.4
6,O=C1COc2ccccc2C/C=C/CC2(CCN(C(=O)CCc3cccnc3)CC2)CN1 [CBK292127],90.8
7,COC(=O)c1c(C)n(CCCNc2ccc([N+](=O)[O-])cc2Cl)c2ccc(O)cc12 [CBK268363],86.2
8,Cc1nc2ccc(C(=O)NCCCN3Cc4ccccc4C3)cc2[nH]1 [CBK283301],90.3
9,COc1ccc(CC(=O)N2CCCC2c2cccc(Cc3ccc(F)cc3)n2)cc1 (stereo not shown) [CBK286233],89.1
10,Cc1nc2c(c(=O)[nH]1)CN(Cc1ccc(F)cc1)CC2 [CBK284009],86.9
11,Cc1cccc(C(=O)NC(=S)Nc2cccc(C(=O)O)c2)c1 [CBK264987],121
12,CC(=O)Nc1ccccc1NC(=O)COc1ccc(Br)cc1C [CBK265072],103
13,CCc1ccc2c(c1)C(CCNC(=O)c1ncccc1F)C(=O)N2 (stereo not shown) [CBK304727],106
14,CCCC1CCN(c2ncnc(Oc3ccc(C(=O)c4ccc(F)cc4)cc3)c2[N+](=O)[O-])CC1 [CBK116495],85
15,Cc1ccc(-n2c3c(cc(C(=O)NCCCN4CCOCC4)c2=O)C(=O)CCC3)cc1 [CBK266094],115
16,Cc1nc(C)c(C(=O)NCC2CCCOC2)s1 (stereo not shown) [CBK282194],97.2
17,COc1ccccc1NC(=O)c1c(NC(=O)c2cccs2)sc2c1CCC(C(C)(C)C)C2 (stereo not shown) [CBK264123],100
18,CN1C(C)(C)CC(NC(=O)c2[nH]cnc2C(=O)O)CC1(C)C [CBK287102],87.5
19,Cc1sc2nc(SCCCN3C(=O)c4cccc5cccc(c45)C3=O)nc(N)c2c1C [CBK264424],76.6
20,O=C(c1cnccn1)N1CCN(c2nc3c(F)cccc3s2)CC1 [CBK287722],91.6
21,Cc1cccc(/N=C(\N)Nc2nc(=O)cc(C)[nH]2)c1 [CBK288144],93.1

# Same assay, conditions: human, hela cells, % viability, bulk resorufin, single well
row,SMILES,"viability at 28.5 h, 10 µM [%]"
1,N#CC1(c2ccccc2)CCN(C(=O)c2ccc(S(N)(=O)=O)cc2)CC1 [CBK091397],96.5
